Measured values as given in PubChem BioAssay (NCI).
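A five-concentration, 48-hour dose response in 96-well plates underlies each endpoint, interpolated linearly between surrounding concentrations. TGI marks complete inhibition of growth.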

Legend:
Experiment in all cases: NCI anticancer screen, dose series, 48 h
786-0 renal = system: 786-0 renal
A498 renal = system: A498 renal
ACHN renal = system: ACHN renal
CAKI-1 renal = system: CAKI-1 renal
CCRF-CEM leukemia = system: CCRF-CEM leukemia
COLO 205 colon = system: COLO 205 colon
DLD-1 colon = system: DLD-1 colon
DMS 114 small cell lung = system: DMS 114 small cell lung
DMS 273 small cell lung = system: DMS 273 small cell lung
EKVX NSCLC = system: EKVX NSCLC
HCC-2998 colon = system: HCC-2998 colon
HCT-15 colon = system: HCT-15 colon
HL-60(TB) leukemia = system: HL-60(TB) leukemia
HOP-18 NSCLC = system: HOP-18 NSCLC
HOP-62 NSCLC = system: HOP-62 NSCLC
HOP-92 NSCLC = system: HOP-92 NSCLC
HT29 colon = system: HT29 colon
IGROV1 ovarian = system: IGROV1 ovarian
K-562 leukemia = system: K-562 leukemia
KM12 colon = system: KM12 colon
KM20L2 colon = system: KM20L2 colon
LOX IMVI melanoma = system: LOX IMVI melanoma
LXFL 529 NSCLC = system: LXFL 529 NSCLC
M14 melanoma = system: M14 melanoma
M19-MEL melanoma = system: M19-MEL melanoma
MALME-3M melanoma = system: MALME-3M melanoma
MOLT-4 leukemia = system: MOLT-4 leukemia
NCI-H226 lung = system: NCI-H226 lung
NCI-H23 lung = system: NCI-H23 lung
NCI-H460 lung = system: NCI-H460 lung
NCI-H522 lung = system: NCI-H522 lung
OVCAR-3 ovarian = system: OVCAR-3 ovarian
OVCAR-4 ovarian = system: OVCAR-4 ovarian
OVCAR-5 ovarian = system: OVCAR-5 ovarian
OVCAR-8 ovarian = system: OVCAR-8 ovarian
RPMI-8226 leukemia = system: RPMI-8226 leukemia
RXF-631 renal = system: RXF-631 renal
SF-268 CNS = system: SF-268 CNS
SF-295 CNS = system: SF-295 CNS
SF-539 CNS = system: SF-539 CNS
SK-MEL-2 melanoma = system: SK-MEL-2 melanoma
SK-MEL-28 melanoma = system: SK-MEL-28 melanoma
SK-MEL-5 melanoma = system: SK-MEL-5 melanoma
SK-OV-3 ovarian = system: SK-OV-3 ovarian
SN12C renal = system: SN12C renal
SNB-19 CNS = system: SNB-19 CNS
SNB-75 CNS = system: SNB-75 CNS
SNB-78 CNS = system: SNB-78 CNS
SR leukemia = system: SR leukemia
TK-10 renal = system: TK-10 renal
U251 CNS = system: U251 CNS
UACC-257 melanoma = system: UACC-257 melanoma
UACC-62 melanoma = system: UACC-62 melanoma
UO-31 renal = system: UO-31 renal
XF 498 CNS = system: XF 498 CNS
A549 NSCLC = system: A549 NSCLC
HCT-116 colon = system: HCT-116 colon
SW-620 colon = system: SW-620 colon
RXF 393 renal = system: RXF 393 renal

Work on `NC(N)=N/N=C(/CC1OC(=O)c2ccccc21)c1ccc2ccccc2c1` (configuration not stated) yielded a TGI (786-0 renal) of 32.4 µM, a TGI (A498 renal) of 33.4 µM and a TGI (ACHN renal) of 33.7 µM. It also gave a TGI (CAKI-1 renal) greater than 100 µM, a TGI (CCRF-CEM leukemia) of 43.8 µM and a TGI (COLO 205 colon) of 39 µM. The TGI (DLD-1 colon) was 28 µM, the TGI (DMS 114 small cell lung) was 25.6 µM and the TGI (DMS 273 small cell lung) was 44.9 µM. It also gave a TGI (EKVX NSCLC) of 52.9 µM, a TGI (HCC-2998 colon) of 31.1 µM and a TGI (HCT-15 colon) of 31.7 µM. For the same compound, the TGI (HL-60(TB) leukemia) was 41.9 µM, the TGI (HOP-18 NSCLC) was 43.3 µM and the TGI (HOP-62 NSCLC) was 42.1 µM. It also gave a TGI (HOP-92 NSCLC) of 55 µM, a TGI (HT29 colon) of 45.7 µM and a TGI (IGROV1 ovarian) of 47.2 µM. It also gave a TGI (K-562 leukemia) of 67 µM, a TGI (KM12 colon) of 26.6 µM and a TGI (KM20L2 colon) of 57.2 µM. For the same compound, the TGI (LOX IMVI melanoma) was greater than 100 µM, the TGI (LXFL 529 NSCLC) was 27.7 µM and the TGI (M14 melanoma) was 30.3 µM. It also gave a TGI (M19-MEL melanoma) of 31.6 µM, a TGI (MALME-3M melanoma) of 30 µM and a TGI (MOLT-4 leukemia) of 79.4 µM. It also gave a TGI (NCI-H226 lung) of 32.4 µM, a TGI (NCI-H23 lung) of 88.6 µM and a TGI (NCI-H460 lung) of 32.5 µM. The TGI (NCI-H522 lung) was 28.8 µM, the TGI (OVCAR-3 ovarian) was 38.3 µM and the TGI (OVCAR-4 ovarian) was 37.4 µM. The TGI (OVCAR-5 ovarian) was greater than 100 µM, the TGI (OVCAR-8 ovarian) was 31.5 µM and the TGI (RPMI-8226 leukemia) was 48 µM. The TGI (RXF-631 renal) was 65.2 µM, the TGI (SF-268 CNS) was 31.8 µM and the TGI (SF-295 CNS) was greater than 100 µM. For the same compound, the TGI (SF-539 CNS) was 31.9 µM, the TGI (SK-MEL-2 melanoma) was greater than 100 µM and the TGI (SK-MEL-28 melanoma) was 35.2 µM. It also gave a TGI (SK-MEL-5 melanoma) of 35.8 µM, a TGI (SK-OV-3 ovarian) of 74 µM and a TGI (SN12C renal) of 42.2 µM. It also gave a TGI (SNB-19 CNS) greater than 100 µM, a TGI (SNB-75 CNS) of 47.7 µM and a TGI (SNB-78 CNS) greater than 100 µM. The TGI (SR leukemia) was 33.6 µM, the TGI (TK-10 renal) was 35 µM and the TGI (U251 CNS) was 30.1 µM. The TGI (UACC-257 melanoma) was 28.7 µM, the TGI (UACC-62 melanoma) was 34.7 µM and the TGI (UO-31 renal) was 32.7 µM. The TGI (XF 498 CNS) was 20.9 µM.
`CC(=O)N1CCc2[nH]c3ccccc3c2CC1` was tested, and the TGI (786-0 renal) was greater than 100 µM, the TGI (A498 renal) was greater than 100 µM and the TGI (A549 NSCLC) was greater than 100 µM. It also gave a TGI (ACHN renal) greater than 100 µM, a TGI (CAKI-1 renal) greater than 100 µM and a TGI (CCRF-CEM leukemia) greater than 100 µM. The TGI (COLO 205 colon) was greater than 100 µM, the TGI (DLD-1 colon) was greater than 100 µM and the TGI (DMS 114 small cell lung) was greater than 100 µM. It also gave a TGI (DMS 273 small cell lung) greater than 100 µM, a TGI (EKVX NSCLC) greater than 100 µM and a TGI (HCC-2998 colon) greater than 100 µM. The TGI (HCT-116 colon) was greater than 100 µM, the TGI (HCT-15 colon) was greater than 100 µM and the TGI (HL-60(TB) leukemia) was greater than 100 µM. The TGI (HOP-18 NSCLC) was greater than 100 µM, the TGI (HOP-62 NSCLC) was greater than 100 µM and the TGI (HOP-92 NSCLC) was greater than 100 µM. It also gave a TGI (HT29 colon) greater than 100 µM, a TGI (IGROV1 ovarian) greater than 100 µM and a TGI (K-562 leukemia) greater than 100 µM. The TGI (KM12 colon) was greater than 100 µM, the TGI (KM20L2 colon) was greater than 100 µM and the TGI (LOX IMVI melanoma) was greater than 100 µM. For the same compound, the TGI (LXFL 529 NSCLC) was greater than 100 µM, the TGI (M14 melanoma) was greater than 100 µM and the TGI (M19-MEL melanoma) was greater than 100 µM. For the same compound, the TGI (MALME-3M melanoma) was greater than 100 µM, the TGI (MOLT-4 leukemia) was greater than 100 µM and the TGI (NCI-H23 lung) was greater than 100 µM. It also gave a TGI (NCI-H460 lung) greater than 100 µM, a TGI (OVCAR-3 ovarian) greater than 100 µM and a TGI (OVCAR-4 ovarian) greater than 100 µM. The TGI (OVCAR-5 ovarian) was greater than 100 µM, the TGI (OVCAR-8 ovarian) was greater than 100 µM and the TGI (RPMI-8226 leukemia) was greater than 100 µM. The TGI (RXF-631 renal) was greater than 100 µM, the TGI (SF-295 CNS) was greater than 100 µM and the TGI (SF-539 CNS) was greater than 100 µM. The TGI (SK-MEL-2 melanoma) was greater than 100 µM, the TGI (SK-MEL-28 melanoma) was greater than 100 µM and the TGI (SK-MEL-5 melanoma) was greater than 100 µM. For the same compound, the TGI (SK-OV-3 ovarian) was greater than 100 µM, the TGI (SNB-75 CNS) was 98.9 µM and the TGI (SNB-78 CNS) was greater than 100 µM. It also gave a TGI (SW-620 colon) greater than 100 µM, a TGI (TK-10 renal) greater than 100 µM and a TGI (U251 CNS) greater than 100 µM. It also gave a TGI (UACC-257 melanoma) greater than 100 µM, a TGI (UACC-62 melanoma) greater than 100 µM and a TGI (XF 498 CNS) greater than 100 µM.
Compound `COC(=O)c1cc(-c2ccc(OC)c(OC)c2)oc1-c1ccc(OC)c(OC)c1` has a TGI (786-0 renal) greater than 100 µM, a TGI (A498 renal) of 59.5 µM and a TGI (A549 NSCLC) greater than 100 µM. It also gave a TGI (ACHN renal) greater than 100 µM, a TGI (CAKI-1 renal) greater than 100 µM and a TGI (CCRF-CEM leukemia) greater than 100 µM. The TGI (COLO 205 colon) was 39.4 µM, the TGI (DLD-1 colon) was greater than 100 µM and the TGI (DMS 114 small cell lung) was 95.5 µM. The TGI (DMS 273 small cell lung) was greater than 100 µM, the TGI (EKVX NSCLC) was greater than 100 µM and the TGI (HCC-2998 colon) was greater than 100 µM. For the same compound, the TGI (HCT-116 colon) was greater than 100 µM, the TGI (HCT-15 colon) was greater than 100 µM and the TGI (HL-60(TB) leukemia) was greater than 100 µM. The TGI (HOP-18 NSCLC) was greater than 100 µM, the TGI (HOP-62 NSCLC) was greater than 100 µM and the TGI (HOP-92 NSCLC) was 71.4 µM. For the same compound, the TGI (HT29 colon) was greater than 100 µM, the TGI (IGROV1 ovarian) was greater than 100 µM and the TGI (K-562 leukemia) was greater than 100 µM. It also gave a TGI (KM12 colon) greater than 100 µM, a TGI (KM20L2 colon) greater than 100 µM and a TGI (LOX IMVI melanoma) greater than 100 µM. The TGI (LXFL 529 NSCLC) was greater than 100 µM, the TGI (M14 melanoma) was greater than 100 µM and the TGI (M19-MEL melanoma) was greater than 100 µM. It also gave a TGI (MALME-3M melanoma) greater than 100 µM, a TGI (MOLT-4 leukemia) greater than 100 µM and a TGI (NCI-H226 lung) greater than 100 µM. The TGI (NCI-H23 lung) was greater than 100 µM, the TGI (NCI-H460 lung) was greater than 100 µM and the TGI (OVCAR-3 ovarian) was greater than 100 µM. It also gave a TGI (OVCAR-4 ovarian) greater than 100 µM, a TGI (OVCAR-5 ovarian) greater than 100 µM and a TGI (OVCAR-8 ovarian) greater than 100 µM. It also gave a TGI (RPMI-8226 leukemia) greater than 100 µM, a TGI (RXF 393 renal) of 72.7 µM and a TGI (RXF-631 renal) greater than 100 µM. The TGI (SF-268 CNS) was greater than 100 µM, the TGI (SF-295 CNS) was greater than 100 µM and the TGI (SF-539 CNS) was 96.2 µM. It also gave a TGI (SK-MEL-2 melanoma) greater than 100 µM, a TGI (SK-MEL-28 melanoma) greater than 100 µM and a TGI (SK-OV-3 ovarian) greater than 100 µM. The TGI (SN12C renal) was 93.6 µM, the TGI (SNB-75 CNS) was greater than 100 µM and the TGI (SNB-78 CNS) was greater than 100 µM. For the same compound, the TGI (SR leukemia) was greater than 100 µM, the TGI (SW-620 colon) was greater than 100 µM and the TGI (TK-10 renal) was greater than 100 µM. The TGI (U251 CNS) was greater than 100 µM, the TGI (UACC-257 melanoma) was greater than 100 µM and the TGI (UACC-62 melanoma) was greater than 100 µM. The TGI (UO-31 renal) was greater than 100 µM and the TGI (XF 498 CNS) was greater than 100 µM.
